Experimental data from US20120321685A1, “COMPOSITIONS CONTAINING OILS HAVING A SPECIFIC GRAVITY HIGHER THAN THE SPECIFIC GRAVITY OF WATER” (SOL-GEL TECHNOLOGIES LTD., priority 2001, published 2012).

Experiments:
[1] = Solubility of BMDBM and other solid sunscreen actives in different solvents; type: physicochemical; conditions: in Dipropylene glycol Dibenzoate (Finetex Finsolv PG-22), 25° C.
Protocol: The solubility of commonly used sunscreen active ingredients was tested by heating a solution of below-mentioned solvents or their mixture to 50° C. under stirring. Access amount of the sunscreen active was added. After thorough mixing to dissolve the solid, the solution was allowed to cool to 25° C. over night in the water bath under constant oscillation and the access active precipitated. The solution was filtered using 0.2 μm PTFE filter, and the concentration of BMDBM was determined by HPLC equipped with UV diode array detector against standard solution of BMDBM. For the other sunscreen actives, the concentration of the active was determined spectroscopically against standard solution of the active. Table 1 lists the solubility values obtained for BMDBM and other sunscreen actives in different commercially available solvents.

[2] = cited from earlier work
[3] = Solubility of benzoyl peroxide in Finsolve PG-22; type: physicochemical
Protocol: The solubility of benzoyl peroxide in dipropylene glycol dibenzoate (Finsolv PG 22) was measured in a method similar to Example 1. Benzoyl peroxide concentration was determined by titration according to USP. The solubility of benzoyl peroxide in Finsolve PG-22 is 6 wt. %.

Row | SMILES | Solvent specific gravity, acc. to D25/25 [2] | further results
1 | COc1ccc(C(=O)c2ccccc2)c(O)c1 [Benzophenone-3] | – | Solubility, concentration [1]: 26.6 wt %
2 | CCC(=O)OCc1ccccc1 [Benzyl propionate] | 1.028-1.032 | –
3 | Cc1ccc(/C=C2/C(=O)C3(C)CCC2C3(C)C)cc1 (stereo not drawn) [Methyl benzyledene camphor] | – | Solubility, concentration [1]: 30.16 wt %
4 | CCOC(=O)c1ccccc1O [Ethyl salicylate] | 1.126-1.130 | –
5 | CC(COC(=O)c1ccccc1)OCC(C)OC(=O)c1ccccc1 (stereo not drawn) [Finsolv PG-22, Dipropylene glycol Dibenzoate] | 1.12 | –
6 | CC(COC(=O)c1ccccc1)OCC(C)OC(=O)c1ccccc1 (stereo not drawn) [Dermol DPG-2B, Dipropylene glycol Dibenzoate] | 1.117 | –
7 | CCOC(=O)c1ccccc1 [Ethyl benzoate] | 1.043-1.046 | –
8 | O=C(OOC(=O)c1ccccc1)c1ccccc1 [benzoyl peroxide] | – | Solvent quality of dipropylene glycol dibenzoate for BPO ([3]; in dipropylene glycol dibenzoate): good solvent; Solubility of benzoyl peroxide in Finsolve PG-22 ([3]; in dipropylene glycol dibenzoate (Finsolv PG 22), method similar to Example 1, titration according to USP): 6 wt. %
